From the supplement of paper PMC10331698
± gives the standard deviation of the averaged measurements.

Legend:
Experiment in all cases: level (log10 ratio to DMSO vehicle control); higher = higher biomarker level / cell amount than vehicle control
[1] = compound: C=C(C)C(=O)OCCC(F)(F)C(F)(F)C(F)(F)C(F)(F)C(F)(F)C(F)(F)F [6:2 Fluorotelomer methacrylate]; conditions: in DMSO
Protocol: (§1)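 BioMAP Diversity Plus panel of 12 human primary cell co-culture systems (3C, 4H, LPS, SAg, BT, BF4T, BE3C, CASM3C, HDF3CGF, KF3CT, MyoF, Mphg). Compounds were added 1 h before stimulation and left for 24 h (MyoF 48 h; BT 72 h for soluble read-outs or 6 d for IgG). Biomarkers were read by ELISA, cytotoxicity by SRB, PBMC viability and proliferation by Alamar Blue. Each well value was divided by the mean of 8 DMSO control wells on the same plate and log10 transformed; duplicate blinded samples were tested at 4 concentrations.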

[2] = compound: C=CC(=O)OCC(F)(F)C(F)(F)C(F)(F)COC(=O)C=C [1H,1H,5H,5H-Perfluoro-1,5-pentanediol diacrylate]; conditions: 6700 nM; in DMSO
Protocol: as §1

[3] = compound: FC(F)(F)C(F)(F)C(F)(F)C(F)(F)C(F)(F)C(F)(F)CC1CO1 [3-(Perfluorohexyl)-1,2-epoxypropane]; conditions: in DMSO
Protocol: as §1

[4] = compound: NC(=O)C(F)(F)C(F)(F)C(F)(F)C(F)(F)C(N)=O [Octafluoroadipamide]; conditions: in DMSO
Protocol: as §1

[5] = compound: O=C(O)C(F)(F)C(F)(F)C(F)(F)C(F)(F)C(F)(F)C(F)(F)C(F)(F)C(F)(F)C(F)(F)C(F)F [11-H-Perfluoroundecanoic acid]; conditions: in DMSO
Protocol: as §1

[6] = compound: O=S(=O)(Cl)C(F)(F)C(F)(F)C(F)(F)C(F)(F)C(F)(F)C(F)(F)C(F)(F)C(F)(F)F [Perfluoro-1-octanesulfonyl chloride]; conditions: in DMSO
Protocol: as §1

[7] = compound: OCC(F)(F)C(F)(F)C(F)(F)CO [Hexafluoroamylene glycol]; conditions: in DMSO
Protocol: as §1

Test System	level (log10) ([1]; 6700 nM)	level (log10) ([1]; 20000 nM)	level (log10) ([1]; 60000 nM)	level (log10) [2]	level (log10) ([3]; 6700 nM)	level (log10) ([3]; 20000 nM)	level (log10) ([3]; 60000 nM)	level (log10) ([4]; 6700 nM)	level (log10) ([4]; 20000 nM)	level (log10) ([4]; 60000 nM)	level (log10) ([5]; 6700 nM)	level (log10) ([5]; 20000 nM)	level (log10) ([6]; 6700 nM)	level (log10) ([6]; 20000 nM)	level (log10) ([6]; 60000 nM)	level (log10) ([7]; 6700 nM)	level (log10) ([7]; 20000 nM)	level (log10) ([7]; 60000 nM)
BE3C:CXCL8/IL-8	0.05 ± 0.086	0.0325 ± 0.046	0.043 ± 0.072	-0.0515 ± 0.04	0.0215 ± 0.04	0.01 ± 0.031	0.0605 ± 0.015	-0.0565 ± 0.013	-0.0485 ± 0.026	-0.034 ± 0.083	-0.0885 ± 0.016	0.0475 ± 0.05	0.0065 ± 0.005	-0.0605 ± 0.0021	-0.311 ± 0.17	-0.001 ± 0.031	-0.003 ± 0.025	0.013 ± 0.034
BE3C:CXCL9/MIG	0.0055 ± 0.028	0.008 ± 0.035	0.015 ± 0.045	0.0095 ± 0.0021	0.0095 ± 0.018	0.0185 ± 0.016	0.023 ± 0.0057	-0.008	-0.007 ± 0.0057	0.006 ± 0.0071	-0.004 ± 0.0057	-0.905 ± 0.047	-0.0025 ± 0.00071	-0.004 ± 0.0042	-0.724 ± 0.11	-0.003 ± 0.0085	-0.0055 ± 0.0035	0.0025 ± 0.011
BE3C:CXCL10/IP-10	0.0275 ± 0.091	0.021 ± 0.068	0.034 ± 0.078	-0.0215 ± 0.0035	0.001 ± 0.0057	0.001 ± 0.017	0.018 ± 0.0014	-0.0275 ± 0.047	-0.031 ± 0.03	-0.0185 ± 0.056	-0.141 ± 0.012	-0.874 ± 0.014	-0.0275 ± 0.0064	-0.165 ± 0.033	-0.927 ± 0.04	-0.009 ± 0.014	-0.0115 ± 0.011	-0.007 ± 0.02
BE3C:HLA-DR	0.0015 ± 0.016	-0.0065 ± 0.0064	0.0125 ± 0.005	-0.0175 ± 0.028	0 ± 0.0099	-0.0025 ± 0.011	0.006 ± 0.017	-0.003 ± 0.0014	-0.0015 ± 0.00071	0.0175 ± 0.037	-0.0645 ± 0.005	-0.669 ± 0.0085	-0.006 ± 0.025	-0.041 ± 0.014	-0.642 ± 0.14	-0.0155 ± 0.0092	-0.017 ± 0.014	-0.019 ± 0.024
BF4T:CCL2/MCP-1	0.0165 ± 0.005	-0.012 ± 0.014	0.002 ± 0.021	-0.073 ± 0.0099	-0.003 ± 0.028	-0.007 ± 0.028	0.017 ± 0.028	0.003 ± 0.011	-0.0025 ± 0.0064	-0.02 ± 0.031	-0.162 ± 0.02	-0.2635 ± 0.0021	0.038 ± 0.028	-0.0205 ± 0.021	-0.378 ± 0.021	0.013 ± 0.013	0.0145 ± 0.016	0.039 ± 0.045
BF4T:CCL26/Eotaxin-3	0.0285 ± 0.025	-0.001 ± 0.11	0.041 ± 0.055	-0.04 ± 0.0028	-0.0225 ± 0.076	-0.016 ± 0.065	0.001 ± 0.0042	-0.0045 ± 0.046	0.0065 ± 0.052	0.0075 ± 0.029	-0.122 ± 0.014	-0.234 ± 0.018	-0.0515 ± 0.0064	-0.142 ± 0.011	-0.326 ± 0.051	0.003 ± 0.051	0.002 ± 0.0071	0.0395 ± 0.042
BF4T:CD90	-0.004 ± 0.0057	-0.007 ± 0.0057	-0.0065 ± 0.0021	-0.0195 ± 0.018	-0.005 ± 0.0042	-0.0055 ± 0.0092	0.0085 ± 0.028	-0.0155 ± 0.0078	-0.0145 ± 0.0021	-0.0125 ± 0.021	-0.0485 ± 0.028	-0.0995 ± 0.029	0.0005 ± 0.00071	-0.019	-0.028 ± 0.038	-0.012 ± 0.0028	-0.017	-0.004 ± 0.011
BF4T:CD106/VCAM-1	0.008 ± 0.079	0.039	-0.0215 ± 0.028	-0.0685 ± 0.026	0.0195 ± 0.0021	0.017 ± 0.0028	0.0275 ± 0.028	-0.0265 ± 0.021	-0.0215 ± 0.016	0.0155 ± 0.061	-0.062 ± 0.0057	-0.148 ± 0.079	-0.0255 ± 0.029	-0.04 ± 0.028	-0.126 ± 0.088	-0.0015 ± 0.023	0.0045 ± 0.023	0.034 ± 0.025
BF4T:MMP-1	-0.0015 ± 0.005	0.015 ± 0.011	0.015 ± 0.013	0.031 ± 0.016	-0.003 ± 0.0057	0.0045 ± 0.0021	0.023 ± 0.027	-0.006 ± 0.0099	-0.0095 ± 0.0021	0.004 ± 0.016	-0.0115 ± 0.013	0.0005 ± 0.026	0.008 ± 0.016	0.025 ± 0.014	-0.042 ± 0.0071	-0.0105 ± 0.005	-0.007 ± 0.0014	0 ± 0.0085
BF4T:MMP-3	-0.001 ± 0.013	-0.0215 ± 0.028	0.0055 ± 0.005	0.056 ± 0.028	0.0155 ± 0.011	0.018 ± 0.024	0.0475 ± 0.03	-0.0145 ± 0.0078	-0.0145 ± 0.015	0.003 ± 0.038	0.0035 ± 0.046	0.002 ± 0.028	-0.0125 ± 0.0021	0.0225 ± 0.028	-0.0595 ± 0.0035	-0.016 ± 0.037	-0.0205 ± 0.028	0.011 ± 0.042
BF4T:MMP-9	-0.0295 ± 0.096	-0.033 ± 0.028	-0.028 ± 0.062	-0.02 ± 0.021	0.001 ± 0.0071	0.005 ± 0.0071	0.023 ± 0.04	-0.0245 ± 0.005	-0.016 ± 0.016	0.0115 ± 0.046	-0.042 ± 0.047	-0.154 ± 0.021	0.0055 ± 0.0078	0.0065 ± 0.021	-0.314 ± 0.083	-0.0045 ± 0.011	-0.0165 ± 0.0035	0.0105 ± 0.035
BF4T:PAI-I	-0.0175 ± 0.011	-0.007 ± 0.0042	-0.0075 ± 0.0035	-0.0285 ± 0.00071	0.003 ± 0.0085	0.007	0.007 ± 0.018	-0.0005 ± 0.0035	-0.0035 ± 0.00071	0.015 ± 0.023	-0.0455 ± 0.025	-0.146 ± 0.034	-0.001 ± 0.0085	-0.015 ± 0.0099	-0.17 ± 0.0078	-0.0025 ± 0.013	-0.002 ± 0.021	0.0065 ± 0.0064
BF4T:SRB	0.002 ± 0.0071	-0.003 ± 0.0071	-0.0035 ± 0.012	-0.005 ± 0.0042	-0.008 ± 0.011	-0.0105 ± 0.0078	0.0015 ± 0.019	-0.006 ± 0.0071	-0.002 ± 0.0028	0.001 ± 0.0071	-0.012 ± 0.0014	-0.103 ± 0.0092	-0.0015 ± 0.005	-0.011 ± 0.0014	-0.251 ± 0.0085	0.0025 ± 0.018	0.002 ± 0.0085	0 ± 0.0057
BF4T:tPA	-0.0185 ± 0.016	-0.036 ± 0.038	-0.014 ± 0.047	-0.071 ± 0.014	0.0155 ± 0.039	-0.011 ± 0.0085	0.031 ± 0.034	-0.0475 ± 0.035	-0.047 ± 0.045	-0.023 ± 0.081	-0.131 ± 0.019	-0.133	-0.0495 ± 0.029	-0.047 ± 0.057	-0.181 ± 0.085	-0.017 ± 0.021	-0.0015 ± 0.0092	0.012 ± 0.038
BF4T:uPA	-0.006 ± 0.0057	0.0005 ± 0.026	0.006 ± 0.011	-0.019 ± 0.013	-0.0045 ± 0.011	-0.0115 ± 0.0064	0.012 ± 0.04	-0.0405 ± 0.0092	-0.0325 ± 0.021	-0.0165 ± 0.026	-0.0095 ± 0.036	-0.051 ± 0.038	-0.028 ± 0.03	-0.025 ± 0.025	-0.113 ± 0.046	-0.0065 ± 0.021	-0.006 ± 0.014	0.004 ± 0.0057
BT:B cell Proliferation	-0.0325 ± 0.043	-0.0255 ± 0.021	-0.008	-0.24 ± 0.052	0.0065 ± 0.026	0.0035 ± 0.0035	-0.01 ± 0.0085	-0.008 ± 0.025	0.018 ± 0.013	0.016 ± 0.025	0.023 ± 0.016	0.035 ± 0.031	0.01 ± 0.044	0.0345 ± 0.013	0.101 ± 0.011	0.0165 ± 0.013	0.0285 ± 0.0064	0.0195 ± 0.043
